The text below walks through data of PMC11992225, “Antibacterial compounds against non-growing and intracellular bacteria” (npj Antimicrobials and Resistance, 2025).

The test system of one assay is non-growing UPEC CFT073. As to the kind of experiment: Dose-dependent killing analysis (CFU spot-plating) of stationary-phase UPEC. It is filed as cell-based, Escherichia coli. To be noted: for log10(CFU/ml) after treatment: individual replicates. The procedure:
To differentiate between these scenarios, we used CFU counting by agar plating to assess the bactericidal effect on non-growing bacteria. […] Conversely, if no significant reduction in CFU is observed, the regrowth delay is due to PAE without killing. […] Fluoroquinolones are known to cause PAE after treatment of growing bacterial cultures.
(§1) For survival analysis, bacteria were cultivated as described for the dose–response dilution-regrowth assay. Assays with UPEC were conducted at the CBCS screening facility using 96-well plates with a 200 μl sample volume, and compounds were dispensed using the Echo® (Labcyte) system. P. aeruginosa and S. aureus samples were treated according to the protocol used for the dilution-regrowth experiments. Treated samples were serially diluted 10-fold in PBS, and 10 μl drops were spot-plated onto rectangular LB agar plates using either a Beckman NXP robot (for UPEC) or an Integra VIAFLO96 electronic pipette (for P. aeruginosa and S. aureus). The LB agar plates were incubated overnight at 37 °C and scanned. Colonies were counted at the spots of the lowest dilution where individual colonies could be accurately distinguished. Each colony was manually marked on a separate image layer using the GNU Image Manipulation Program, and counted using NIST’s Integrated Colony Enumerator (NICE 1.4) software. The experiments were performed in three biological replicates.

For assay [1], the system named is non-growing P. aeruginosa DSM1117. As to the kind of experiment: Dose-dependent killing analysis (CFU spot-plating) of stationary-phase P. aeruginosa. It is filed as cell-based, Pseudomonas aeruginosa. To be noted: for killing, average Δlog10(CFU/ml) / log10(CFU/ml) of treated nongrowing bacteria (single replicates) / log10(CFU/ml) after treatment: P. aeruginosa; for log10(CFU/ml) of treated nongrowing bacteria (single replicates): before treatment 8.887; for log10(CFU/ml) after treatment: individual replicates. As to the method:
The cultures were grown and treated for 24 h in 1:4 CA-MHB (pH 7.4).
as §1

The mark [2] stands for this setting: E. coli in 1:4 CA-MHB (pH 7.4), drug concentration 0.25.
[3] abbreviates: E. coli in 1:4 CA-MHB (pH 7.4), drug concentration 0.25, before treatment 8.977.
The mark [4] stands for this setting: E. coli in 1:4 CA-MHB (pH 7.4), drug concentration 0.5.
Setting [5] is: E. coli in 1:4 CA-MHB (pH 7.4), drug concentration 0.5, before treatment 8.977.
The mark [6] stands for this setting: E. coli in 1:4 CA-MHB (pH 7.4), drug concentration 1.
Where [7] appears, read: E. coli in 1:4 CA-MHB (pH 7.4), drug concentration 1, before treatment 8.977.
The mark [8] stands for this setting: E. coli in 1:4 CA-MHB (pH 7.4), drug concentration 2.5.
[9] abbreviates: E. coli in 1:4 CA-MHB (pH 7.4), drug concentration 2.5, before treatment 8.977.
Setting [10] is: E. coli in 1:4 CA-MHB (pH 7.4), drug concentration 5.
Setting [11] is: E. coli in 1:4 CA-MHB (pH 7.4), drug concentration 5, before treatment 8.977.
Setting [12] is: E. coli in 1:4 CA-MHB (pH 7.4), drug concentration 10.
[13] abbreviates: E. coli in 1:4 CA-MHB (pH 7.4), drug concentration 10, before treatment 8.977.

Values joined by “and” are separate entries in the source; they are usually repeats but may differ in a detail not shown here. Identical values can stand only once.

For `N[C@@H]1[C@H]2CN(c3nc4c(cc3F)c(=O)c(C(=O)O)cn4-c3ccc(F)cc3F)C[C@@H]12` [Trovafloxacin], the “killing, average Δlog10(CFU/ml)” value with non-growing UPEC CFT073 (setting [2]) was 0.343 log10(CFU/ml); in the assay on non-growing UPEC CFT073 (setting [4]), 0.539 log10(CFU/ml); with non-growing UPEC CFT073 (setting [6]), 0.839 log10(CFU/ml); in the assay on non-growing UPEC CFT073 (setting [8]), 1.866 log10(CFU/ml); with non-growing UPEC CFT073 (setting [10]) it was 2.103 log10(CFU/ml); with non-growing UPEC CFT073 (setting [12]), 2.608 log10(CFU/ml). Moreover, the “killing, average Δlog10(CFU/ml)” value is 0.094 log10(CFU/ml) with non-growing UPEC CFT073 (E. coli in LPM (pH 5.5), drug concentration 0.25); 0.009 log10(CFU/ml) with non-growing UPEC CFT073 (E. coli in LPM (pH 5.5), drug concentration 0.5); 0.00468 log10(CFU/ml) in the assay on non-growing UPEC CFT073 (E. coli in LPM (pH 5.5), drug concentration 1); 0.225 log10(CFU/ml) in the assay on non-growing UPEC CFT073 (E. coli in LPM (pH 5.5), drug concentration 2.5); 0.336 log10(CFU/ml) with non-growing UPEC CFT073 (E. coli in LPM (pH 5.5), drug concentration 5); 0.963 log10(CFU/ml) in the assay on non-growing UPEC CFT073 (E. coli in LPM (pH 5.5), drug concentration 10). Further, the “killing, average Δlog10(CFU/ml)” value is reported as 0.236 log10(CFU/ml) in assay [1] (drug concentration 0.1), 0.717 log10(CFU/ml) in assay [1] (drug concentration 0.5), 1.077 log10(CFU/ml) in assay [1] (drug concentration 2.5) and 1.687 log10(CFU/ml) in assay [1] (drug concentration 10). Further, the “log10(CFU/ml) of treated nongrowing bacteria (single replicates)” value (shortened to “log10(CFU/ml) … (single replicates)”) is 9.041 log10(CFU/ml) and 8.447 log10(CFU/ml) and 8.415 log10(CFU/ml) in the assay on non-growing UPEC CFT073 (setting [3]); 8.699 log10(CFU/ml) and 8.362 log10(CFU/ml) and 8.255 log10(CFU/ml) in the assay on non-growing UPEC CFT073 (setting [5]); 8.255 log10(CFU/ml) and 8.204 log10(CFU/ml) and 7.954 log10(CFU/ml) in the assay on non-growing UPEC CFT073 (setting [7]); 7.255 log10(CFU/ml) and 6.903 log10(CFU/ml) and 7.176 log10(CFU/ml) with non-growing UPEC CFT073 (setting [9]); 7.146 log10(CFU/ml) and 6.699 log10(CFU/ml) and 6.778 log10(CFU/ml) with non-growing UPEC CFT073 (setting [11]); 6.462 log10(CFU/ml) and 6.322 log10(CFU/ml) (2×) with non-growing UPEC CFT073 (setting [13]). For the same molecule, the “log10(CFU/ml) … (single replicates)” value with non-growing UPEC CFT073 (E. coli in LPM (pH 5.5), drug concentration 0.25, before treatment 7.350) was 7.146 log10(CFU/ml) and 6.544 log10(CFU/ml) and 8.079 log10(CFU/ml); in the assay on non-growing UPEC CFT073 (E. coli in LPM (pH 5.5), drug concentration 0.5, before treatment 7.350), 7.146 log10(CFU/ml) and 6.732 log10(CFU/ml) and 8.146 log10(CFU/ml); in the assay on non-growing UPEC CFT073 (E. coli in LPM (pH 5.5), drug concentration 1, before treatment 7.350), 7.255 log10(CFU/ml) and 6.740 log10(CFU/ml) and 8.041 log10(CFU/ml); in the assay with non-growing UPEC CFT073 (E. coli in LPM (pH 5.5), drug concentration 2.5, before treatment 7.350) it was 7.230 log10(CFU/ml) and 6.447 log10(CFU/ml) and 7.699 log10(CFU/ml); in the assay with non-growing UPEC CFT073 (E. coli in LPM (pH 5.5), drug concentration 5, before treatment 7.350) it was 6.699 log10(CFU/ml) and 6.763 log10(CFU/ml) and 7.580 log10(CFU/ml); in the assay on non-growing UPEC CFT073 (E. coli in LPM (pH 5.5), drug concentration 10, before treatment 7.350), 6.146 log10(CFU/ml) and 6.415 log10(CFU/ml) and 6.602 log10(CFU/ml). Further, the “log10(CFU/ml) … (single replicates)” value in assay [1] (drug concentration 0.1) was 8.699 log10(CFU/ml) and 8.954 log10(CFU/ml) and 8.301 log10(CFU/ml); in assay [1] (drug concentration 0.5), 7.954 log10(CFU/ml) (2×) and 8.602 log10(CFU/ml); in assay [1] (drug concentration 2.5), 7.778 log10(CFU/ml) and 7.954 log10(CFU/ml) and 7.699 log10(CFU/ml); in assay [1] (drug concentration 10), 7.301 log10(CFU/ml) (2×) and 7.000 log10(CFU/ml).

As for `C[C@@H]1CN(c2c(F)c(N)c3c(=O)c(C(=O)O)cn(C4CC4)c3c2F)C[C@H](C)N1` [Sparfloxacin], the “killing, average Δlog10(CFU/ml)” value is reported as 0.241 log10(CFU/ml) in the assay on non-growing UPEC CFT073 (setting [2]); 0.055 log10(CFU/ml) with non-growing UPEC CFT073 (setting [4]); 0.246 log10(CFU/ml) with non-growing UPEC CFT073 (setting [6]); 0.077 log10(CFU/ml) in the assay with non-growing UPEC CFT073 (setting [8]); 0.562 log10(CFU/ml) with non-growing UPEC CFT073 (setting [10]); 1.084 log10(CFU/ml) with non-growing UPEC CFT073 (setting [12]). Also, the “killing, average Δlog10(CFU/ml)” value in assay [1] (drug concentration 0.1) is on record as 0.268 log10(CFU/ml); in assay [1] (drug concentration 0.5), 0.923 log10(CFU/ml); in assay [1] (drug concentration 2.5) it was 3.104 log10(CFU/ml); in assay [1] (drug concentration 10) it was 4.887 log10(CFU/ml). Moreover, the “log10(CFU/ml) … (single replicates)” value with non-growing UPEC CFT073 (setting [3]) was 8.954 log10(CFU/ml) and 8.778 log10(CFU/ml) and 8.477 log10(CFU/ml); in the assay on non-growing UPEC CFT073 (setting [5]) it was 9.114 log10(CFU/ml) and 8.699 log10(CFU/ml) and 8.954 log10(CFU/ml); with non-growing UPEC CFT073 (setting [7]), 9.114 log10(CFU/ml) and 8.301 log10(CFU/ml) and 8.778 log10(CFU/ml); with non-growing UPEC CFT073 (setting [9]), 9.380 log10(CFU/ml) and 8.477 log10(CFU/ml) and 8.845 log10(CFU/ml); with non-growing UPEC CFT073 (setting [11]) it was 8.602 log10(CFU/ml) and 8.342 log10(CFU/ml) and 8.301 log10(CFU/ml); with non-growing UPEC CFT073 (setting [13]), 8.301 log10(CFU/ml) and 7.602 log10(CFU/ml) and 7.778 log10(CFU/ml). The “log10(CFU/ml) … (single replicates)” value is 8.602 log10(CFU/ml) and 9.079 log10(CFU/ml) and 8.176 log10(CFU/ml) in assay [1] (drug concentration 0.1); 8.114 log10(CFU/ml) and 8.000 log10(CFU/ml) and 7.778 log10(CFU/ml) in assay [1] (drug concentration 0.5); 5.903 log10(CFU/ml) and 6.845 log10(CFU/ml) and 4.602 log10(CFU/ml) in assay [1] (drug concentration 2.5); “=<4 log10(CFU/ml)” in assay [1] (drug concentration 10).

On to `Cc1oc(=O)oc1CN1CCN(c2cc3c(cc2F)c(=O)c(C(=O)O)c2n3C(C)S2)CC1` (stereo not shown) [Prulifloxacin], for which the “log10(CFU/ml) after treatment” value in the assay on non-growing UPEC CFT073 (E. coli in 1:4 CA-MHB (pH 7.4), concentration 1) was 9.041 log10(CFU/ml) (2×) and 8.398 log10(CFU/ml); in the assay on non-growing UPEC CFT073 (E. coli in 1:4 CA-MHB (pH 7.4), concentration 2.5), 8.845 log10(CFU/ml) and 8.230 log10(CFU/ml) and 7.903 log10(CFU/ml); in the assay with non-growing UPEC CFT073 (E. coli in 1:4 CA-MHB (pH 7.4), concentration 5), 8.477 log10(CFU/ml) and 7.699 log10(CFU/ml) and 7.176 log10(CFU/ml); in the assay on non-growing UPEC CFT073 (E. coli in 1:4 CA-MHB (pH 7.4), concentration 10), 7.903 log10(CFU/ml) and 7.176 log10(CFU/ml) (2×); in assay [1] (concentration 2.5), “=<4 log10(CFU/ml) (2×) and 4.602 log10(CFU/ml)”; in assay [1] (concentration 10), “=<4 log10(CFU/ml)”. The “killing, average Δlog10(CFU/ml)” value in the assay on non-growing UPEC CFT073 (setting [2]) is 0.155 log10(CFU/ml); with non-growing UPEC CFT073 (setting [4]), 0.462 log10(CFU/ml); in assay [1] (concentration 2.5, vs CFU before treatment), 4.687 log10(CFU/ml); in assay [1] (concentration 10, vs CFU before treatment), 4.887 log10(CFU/ml); in assay [1] (drug concentration 0.1), 0.555 log10(CFU/ml); in assay [1] (drug concentration 0.5) it was 3.168 log10(CFU/ml). The “log10(CFU/ml) … (single replicates)” value is 9.322 log10(CFU/ml) and 8.845 log10(CFU/ml) and 8.301 log10(CFU/ml) in the assay with non-growing UPEC CFT073 (setting [3]); 8.903 log10(CFU/ml) and 8.301 log10(CFU/ml) and 8.342 log10(CFU/ml) with non-growing UPEC CFT073 (setting [5]); 8.477 log10(CFU/ml) (2×) and 8.041 log10(CFU/ml) in assay [1] (drug concentration 0.1); 5.778 log10(CFU/ml) and 6.602 log10(CFU/ml) and 4.778 log10(CFU/ml) in assay [1] (drug concentration 0.5). The “reduction of bacterial counts, stationary phase P. aeruginosa” value in assay [1] (at 0.5 µM, 24 h treatment) is given as “more than four”. The “reduction of bacterial counts, non-growing P. aeruginosa” value in assay [1] (at 2.5 µM, 1:4 CA-MHB pH 7.4, 24 h treatment) is given as “more than four”.
